A value given as a limit tells only on which side of the number the result lay.

For `Cc1nccn1Cc1cn(-c2ccc([N+](=O)[O-])cc2)cn1.Cl.Cl`, the melting point (usually the temperature, or range, at which the solid turns liquid) was above 250 °C.

Consider `CCc1nccn1Cc1cn(-c2ccc([N+](=O)[O-])cc2)cn1.Cl.Cl`, for which the melting point lay within 196 to 197 °C.

`Cl.Cl.O=[N+]([O-])c1ccc(-n2cnc(Cn3ccnc3)c2)cc1`: the melting point was in the range of 245 to 246 °C.

In the case of `Cc1cnc(C)n1Cc1cn(-c2ccc(Cl)c(Cl)c2)cn1.Cl.Cl`, the melting point is above 250 °C.

In the case of `Cc1nccn1Cc1ccn(-c2ccc(Cl)c(Cl)c2)n1.Cl`, the melting point was in the range of 204 to 205 °C.

Regarding `CSc1nccn1Cc1cn(-c2ccc(Cl)c(C)c2)cn1.Cl.Cl`, the melting point was 202 to 204 °C (dec.).

Consider `CSc1cccc(-n2cnc(Cn3ccnc3C)c2)c1.Cl.Cl`, for which the melting point is > 200 °C (dec.).

`Cl.Cl.FC(F)(F)Oc1cccc(-n2cnc(Cn3ccnc3)c2)c1`: the melting point was 233 to 234 °C.

As for `Cl.Cl.Clc1cccc(-n2cnc(Cn3ccnc3)c2)c1`, the melting point was > 200 °C (dec.).

Turning to `Cl.Cl.Fc1cc(-n2cnc(Cn3ccnc3)c2)cc(C(F)(F)F)c1`, the melting point is 233 to 234 °C.

`Cl.Cl.c1cn(Cc2cn(-c3ccc4c(c3)CCC4)cn2)cn1` showed a melting point of 214 to 216 °C.

With `COc1cc(-n2cnc(Cn3ccnc3)c2)cc(C(F)(F)F)c1.Cl.Cl`, the melting point fell in the range of 244 to 246 °C.

As for `CCc1nccn1Cc1cn(-c2cccc(C(C)(C)C)c2)cn1.Cl.Cl`, the melting point was 205 °C (dec.).

In the case of `CC(C)(C)c1cccc(-n2cnc(Cn3ccnc3)c2)c1.Cl.Cl`, the melting point is > 200 °C (dec.).

`CCc1nccn1Cc1cn(-c2ccc(OC(F)(F)F)c(Cl)c2)cn1.Cl.Cl` gave a melting point above 250 °C.

On to `Cl.Cl.FC(F)(F)Oc1ccc(-n2cnc(Cn3ccnc3)c2)cc1Cl`, for which the melting point lay in the range of 212 to 213 °C.

As to `CCc1nccn1Cc1cn(-c2ccc(C)c(C)c2)cn1.Cl.Cl`, the melting point was above 250 °C.

Consider `Cc1nccn1Cc1cn(-c2cccc(OC(F)F)c2)cn1.Cl.Cl`, for which the melting point lay in the range of 220 to 222 °C.

`Cl.Cl.FC(F)Oc1cccc(-n2cnc(Cn3ccnc3)c2)c1` yielded a melting point of 205 to 206 °C.

`CCc1nccn1Cc1cn(-c2cccc(C(F)F)c2)cn1.Cl.Cl` displayed a melting point of 219 to 220 °C.

In the case of `Cl.Cl.FC(F)c1cccc(-n2cnc(Cn3ccnc3)c2)c1`, the melting point lay within 216 to 217 °C.

Take `CNc1nccn1Cc1cn(-c2ccc(Cl)c(Cl)c2)cn1.Cl`: the melting point was above 250 °C.

In the case of `CNc1nccn1Cc1ncn(-c2ccc(Cl)c(Cl)c2)c1CO.Cl`, the melting point is > 180 °C (dec.).

As for `Cc1nccn1Cc1cn(-c2cc(F)cc(Br)c2)cn1.Cl.Cl`, the melting point was > 200 °C (dec.).

Compound `Cc1ccc(-n2cnc(Cn3ccnc3C)c2)cc1C.Cl.Cl` returned a melting point of 249 to 251 °C.

In the case of `Cl.Cl.Fc1cc(Br)cc(-n2cnc(Cn3ccnc3)c2)c1`, the melting point is > 200 °C (dec.).

With `CCc1nccn1Cc1cn(-c2ccc3c(c2)OC(F)(F)O3)cn1.Cl.Cl`, the melting point is 237 to 239 °C (dec.).

The compound `Cc1nccn1Cc1cn(-c2ccc3c(c2)OC(F)(F)O3)cn1.Cl.Cl` had a melting point above 250 °C.

Turning to `CCc1nccn1Cc1cn(-c2ccc(SC(F)(F)F)c(Cl)c2)cn1.Cl.Cl`, the melting point is 214 to 215 °C.

`Cc1nccn1Cc1cn(-c2ccc(SC(F)(F)F)c(Cl)c2)cn1.Cl.Cl`: the melting point lay in the range of 195 to 198 °C.

`Cl.Cl.FC(F)(F)Sc1ccc(-n2cnc(Cn3ccnc3)c2)cc1Cl` registered a melting point of 244 to 245 °C.

Compound `Cc1nccn1Cc1cn(-c2cc3ccccc3cn2)cn1.Cl.Cl` had a melting point above 250 °C.

In turn, `CCc1nccn1Cc1cn(-c2ccc(OC(F)(F)F)cc2)cn1.Cl.Cl` displayed a melting point of 216 to 218 °C.

As to `CCc1nccn1Cc1cn(-c2ccc(SC(F)(F)F)cc2)cn1.Cl.Cl`, the melting point lay in the range of 183 to 185 °C.

In turn, `Cc1nccn1Cc1cn(-c2ccc(SC(F)(F)F)cc2)cn1.Cl.Cl` yielded a melting point of 249 to 250 °C.

`Cc1ccc(-n2cnc(Cn3ccnc3C)c2)cc1.Cl.Cl`: the melting point was above 250 °C.

On to `Cc1ccc(-n2cnc(Cn3ccnc3)c2)cc1.Cl.Cl`, for which the melting point is 228 to 229 °C.

In turn, `CCc1nccn1Cc1cn(-c2ccc(F)c(C)c2)cn1.Cl.Cl` registered a melting point of 210 to 212 °C.

In turn, `Cc1cc(-n2cnc(Cn3ccnc3)c2)ccc1F.Cl.Cl` showed a melting point of 242 to 243 °C.

With `CCc1nccn1Cc1cn(-c2ccc(SC)cc2)cn1.Cl.Cl`, the melting point is 161 to 162 °C.

`CSc1ccc(-n2cnc(Cn3ccnc3)c2)cc1.Cl.Cl` yielded a melting point of 233 to 234 °C.

In the case of `Cc1nccn1Cc1cn(-c2cccc(C(F)(F)F)c2)cn1.Cl.Cl`, the melting point was in the range of 218 to 220 °C.

`CCc1nccn1Cc1cn(-c2cccc(C(F)(F)F)c2)cn1.Cl.Cl` had a melting point of 216 to 218 °C.

Regarding `CCc1nccn1Cc1cn(-c2ccc(F)c(C(F)(F)F)c2)cn1.Cl.Cl`, the melting point is > 238 °C (dec.).

For `Cl.Cl.Fc1ccc(-n2cnc(Cn3ccnc3)c2)cc1C(F)(F)F`, the melting point is > 246 °C (dec.).

Compound `CCc1nccn1Cc1cn(-c2ccc(C)c(C(F)(F)F)c2)cn1.Cl.Cl` displayed a melting point above 250 °C.

Compound `Cc1ccc(-n2cnc(Cn3ccnc3)c2)cc1C(F)(F)F.Cl.Cl` registered a melting point above 250 °C.

Take `CCc1nccn1Cc1cn(-c2ccc(Cl)c(OC)c2)cn1.Cl.Cl`: the melting point is 244 to 246 °C (dec.).

Regarding `COc1cc(-n2cnc(Cn3ccnc3C)c2)ccc1Cl.Cl.Cl`, the melting point is above 250 °C.

As for `COc1cc(-n2cnc(Cn3ccnc3C)c2)ccc1F.Cl.Cl`, the melting point is > 220 °C (dec.).

For the compound `COc1cc(-n2cnc(Cn3ccnc3)c2)ccc1F.Cl.Cl`, the melting point is 174 to 178 °C.

`CCc1nccn1Cc1cn(-c2ccc(Cl)cc2)cn1.Cl.Cl` returned a melting point of 200 to 201 °C.

The compound `Cl.Cl.Clc1ccc(-n2cnc(Cn3ccnc3)c2)cc1Cl` gave a melting point above 250 °C.

`Cl.Cl.Clc1ccc(-n2cnc(Cn3ccnc3)c2)cc1`: the melting point was 228 to 229 °C.

Compound `CCc1nccn1Cc1cn(-c2ccc3c(c2)OCO3)cn1.Cl.Cl` gave a melting point above 250 °C.

The compound `Cl.Cl.c1cn(Cc2cn(-c3ccc4c(c3)OCO4)cn2)cn1` came in with a melting point of 197 to 198 °C.

`Cc1ccc(-n2cnc(Cn3ccnc3C)c2)cc1F.Cl.Cl` displayed a melting point above 250 °C.

Take `Cc1ccc(-n2cnc(Cn3ccnc3)c2)cc1F.Cl.Cl`: the melting point lay within 223 to 224 °C.

`COc1ccc(-n2cnc(Cn3ccnc3C)c2)cc1Cl.Cl.Cl` came in with a melting point of 240 to 241 °C.

With `COc1ccc(-n2cnc(Cn3ccnc3)c2)cc1Cl.Cl.Cl`, the melting point is 245 to 246 °C.

In turn, `CCc1nccn1Cc1cn(-c2ccc(Cl)cc2F)cn1.Cl.Cl` had a melting point of 248 to 249 °C.

The compound `CCc1nccn1Cc1cn(-c2ccc(Br)cc2)cn1.Cl.Cl` returned a melting point above 250 °C.

The compound `Brc1ccc(-n2cnc(Cn3ccnc3)c2)cc1.Cl.Cl` had a melting point of 237 to 239 °C.

Compound `CCc1nccn1Cc1cn(-c2ccc(OC(F)F)cc2)cn1.Cl.Cl` came in with a melting point of 199 to 200 °C.

Take `Cc1nccn1Cc1cn(-c2ccc(OC(F)F)cc2)cn1.Cl.Cl`: the melting point was in the range of 228 to 229 °C.

The compound `CCc1nccn1Cc1cn(-c2ccc(OCc3ccccc3)cc2)cn1.Cl.Cl` gave a melting point of 222 to 223 °C.

Turning to `Cl.Cl.c1ccc(COc2ccc(-n3cnc(Cn4ccnc4)c3)cc2)cc1`, the melting point was 224 to 225 °C.

In the case of `CCc1nccn1Cc1cn(-c2ccc(C)c(OC)c2)cn1.Cl.Cl`, the melting point is above 250 °C.

For the compound `COc1cc(-n2cnc(Cn3ccnc3)c2)ccc1C.Cl.Cl`, the melting point was in the range of 249 to 251 °C.

The compound `CCc1nccn1Cc1cn(-c2ccc(C(F)(F)F)cc2)cn1.Cl.Cl` displayed a melting point of 240 to 242 °C.

In turn, `Cc1nccn1Cc1cn(-c2ccc(C(F)(F)F)cc2)cn1.Cl.Cl` had a melting point of 246 to 248 °C.

`Cl.Cl.FC(F)(F)c1ccc(-n2cnc(Cn3ccnc3)c2)cc1` came in with a melting point of 220 to 222 °C.

Regarding `CCc1nccn1Cc1cn(-c2ccc3c(c2)COC3)cn1.Cl.Cl`, the melting point is > 108 °C (dec.).

The compound `COc1ccc(-n2cnc(Cn3ccnc3C)c2)cc1F.Cl.Cl` returned a melting point of 238 to 240 °C.

`Cc1ncn(Cc2cn(-c3ccc(Cl)c(Cl)c3)cn2)c1C.Cl.Cl` came in with a melting point above 250 °C.

In the case of `CCc1nccn1Cc1cn(-c2ccc(OC)c(F)c2)cn1.Cl.Cl`, the melting point lay in the range of 218 to 220 °C.

In turn, `CCc1nccn1Cc1cn(-c2cccc(OC)c2)cn1.Cl.Cl` displayed a melting point of 246 to 248 °C.

`COc1cccc(-n2cnc(Cn3ccnc3C)c2)c1.Cl.Cl` displayed a melting point of 242 to 243 °C.

`COc1cccc(-n2cnc(Cn3ccnc3)c2)c1.Cl.Cl` registered a melting point of 219 to 220 °C.

Take `COc1ccc(-n2cnc(Cn3ccnc3C)c2)cc1C(F)(F)F.Cl.Cl`: the melting point was > 222 °C (dec.).

As to `CCc1nccn1Cc1cn(-c2ccc(OC)c(C(F)(F)F)c2)cn1.Cl.Cl`, the melting point was > 226 °C (dec.).

As for `CCc1nccn1Cc1cn(-c2ccc(C)c(Cl)c2)cn1.Cl.Cl`, the melting point fell in the range of 178 to 179 °C.

Take `Cl.Cl.Clc1ccc(-n2cnc(Cn3ccnc3-c3ccccc3)c2)cc1Cl`: the melting point was 197 to 198 °C.

`CCc1nccn1Cc1cn(-c2ccc(Cl)c(C(F)(F)F)c2)cn1.Cl.Cl` showed a melting point of 179 to 180 °C.

Turning to `Cc1nccn1Cc1cn(-c2ccc(Cl)c(C(F)(F)F)c2)cn1.Cl.Cl`, the melting point is above 250 °C.

`Cl.Cl.FC(F)(F)c1cc(-n2cnc(Cn3ccnc3)c2)ccc1Cl` showed a melting point above 250 °C.

`Cl.Cl.Fc1ccc(-n2cnc(Cn3ccnc3)c2)cc1Cl` showed a melting point of 210 to 212 °C.

Turning to `CCc1nccn1Cc1cn(-c2ccc(-c3ccccc3)cc2)cn1.Cl.Cl`, the melting point is 248 to 253 °C.

In turn, `Cc1nccn1Cc1cn(-c2ccc(-c3ccccc3)cc2)cn1.Cl.Cl` registered a melting point of 169 to 175 °C.

Turning to `CCc1nccn1Cc1cn(-c2ccc(C(C)C)c(C)c2)cn1.Cl.Cl`, the melting point was > 180 °C (dec.).

For the origin of these results see patent publication US6667335B2, “Imidazole derivatives” (Hoffmann-La Roche Inc., priority 2001, dated 2003).
